Measurements as given in PMC9863987, “Identification of Aryl Polyamines Derivatives as Anti-Trypanosoma cruzi Agents Targeting Iron Superoxide Dismutase” (Pharmaceutics, 2022).

Columns and labels:
[1] = tested on: T. cruzi Arequipa strain amastigotes; test: Screening against intracellular amastigotes in Vero cells, Arequipa strain (Giemsa counting); type: cell-based, Trypanosoma cruzi
Protocol: (§1) TINF/CH/1956/Tulahuen, DTU VI [26]—were grown at 28 °C in Gibco® RPMI 1640 Medium supplemented as previously reported, and used for in vitro screening. Trypanocidal activity against amastigotes was tested as previously reported. In brief, bloodstream trypomastigotes (BTs), obtained by cardiac puncture from infected BALB/c mice, were used to infect 1 × 10^4 Vero cells·well^−1 in 24-well plates with rounded coverslips at a multiplicity of infection (MOI) ratio of 10:1. After 24 h of infection, non-internalized trypomastigotes were washed and the infected cells were treated by adding the compounds in serial dilutions from 50 to 0.5 µM in […] for 72 h. BZN and untreated growth controls were also included in triplicate. Later, the number of amastigotes and infected cells were determined in Giemsa stained preparations by analysing 500 host cells randomly distributed in microscopic fields. The trypanocidal activity was expressed as the IC50 using GraphPad Prism 6 software (version 6.07).

[2] = tested on: T. cruzi Arequipa strain trypomastigotes; test: Screening against bloodstream trypomastigotes, Arequipa strain (resazurin); type: cell-based, Trypanosoma cruzi
[3] = tested on: T. cruzi SN3 strain amastigotes; test: Screening against intracellular amastigotes in Vero cells, SN3 strain (Giemsa counting); type: cell-based, Trypanosoma cruzi
Protocol: as §1

[4] = tested on: T. cruzi SN3 strain trypomastigotes; test: Screening against bloodstream trypomastigotes, SN3 strain (resazurin); type: cell-based, Trypanosoma cruzi
[5] = tested on: T. cruzi Tulahuen strain trypomastigotes; test: Screening against bloodstream trypomastigotes, Tulahuen strain (resazurin); type: cell-based, Trypanosoma cruzi
[6] = tested on: Vero cells; test: Cytotoxicity test on mammalian Vero cells (resazurin); type: cell-based; settings: Chlorocebus sabaeus, 48 h treatment + 24 h resazurin, mean of three ± SD, read-out: Toxicity IC50 Vero Cell
Protocol: Cytotoxicity against mammalian Vero cells (EACC No. 84113001) was tested as previously reported. In brief, 1.25 × 10^4 Vero cells·mL^−1, cultured at 37 °C, were treated by adding the compounds in serial dilutions from 400 to 1 µM in 96-well plates (200 µL·well^−1) for 48 h. BZN and untreated controls were also included in triplicate. Later, 20 μL of resazurin sodium salt (Sigma-Aldrich) was added, and the plates were incubated for another 24 h. Finally, cell viability was determined following the same procedure as described to assess the trypanocidal activity in the epimastigotes.

[7] = Clinical analysis of heart, kidney and liver markers in serum of treated mice; type: in vivo, BALB/c mice; settings: n = 3
Protocol: (§2) Infection was carried out by intraperitoneal inoculation of 5 × 10^5 BTs of T. cruzi Arequipa strain per mouse in 0.2 mL PBS [26]. The infection was monitored and on the 10th day post-infection (dpi), when BTs were visible in the bloodstream, the infection was confirmed.
(§3) Mice were divided into four groups (n = 3 per group): 0, negative control group (uninfected and untreated mice); I, positive control group (infected and untreated mice); II, BZN group (mice infected and treated with BZN); III, 15 group (mice infected and treated with 15).
(§4) The treatment for mice treated in the acute and chronic CD began when the infection was confirmed (10th dpi) and was stablished that the animals had entered the chronic CD (75th dpi), respectively (Scheme 1). Compound 15 and BZN were orally administered for 5 consecutive days at a dose of 20 mg·Kg^−1·day^−1.
Blood samples were collected in several dpi (Scheme 1) and processed according the method previously reported to obtain serum. Serum samples were then aliquoted to ELISA test and clinical analysis.
Heart, kidney and liver markers were measured from blood in several dpi (Scheme 1) with Cromakit® as previously reported. Mean and standard deviations were calculated using the levels measured for different populations of sera (n = 15, n = 3), and the confidence interval were also calculated based on a confidence level of 95% (100 × (1 − α) = 100 × (1 − 0.05)).

[8] = tested on: epimastigotes of T. cruzi Arequipa strain; test: Mitochondrial membrane potential by flow cytometry (rhodamine 123); type: cell-based, Trypanosoma cruzi; settings: compounds at IC25 concentrations, 72 h; KCN 10 mM, 40 min; mean of three ± SD
[9] = tested on: Trypanosoma cruzi epimastigotes; test: Excreted metabolites by 1H NMR; type: cell-based; settings: epimastigotes at IC25 concentration, 72 h; succinate and pyruvate most increased
Protocol: 5 × 10^5 mL^−1 epimastigotes culture medium were treated by adding the compounds at IC25 concentrations in 25 cm^2 cell culture flasks for 72 h. Untreated controls were also included in triplicate. Cultures were then centrifuged and filtered, and the metabolites of the supernatants were measured by ^1H NMR (VARIAN DIRECT DRIVE 500 MHz […]) with AutoX probe, D2O as solvent and 2,2-dimethyl-2-silapentane-5-sulphonate as the reference signal. Analyses were conducted as previously reported.

[10] = type: in vivo, BALB/c mice; settings: oral 20 mg/Kg/day for 5 days; acute and chronic infections
Protocol: All animal work (Scheme 1) and maintenance was performed under RD53/2013 and approved by the Ethics Committee on Animal Experimentation (CEEA) of the University of Granada, Spain. Female BALB/c mice (aged 10–12 weeks and 20–22 g) were used in the subsequent in vivo assays.
as §2, §3, §4

[11] = IC50 Vero cells/IC50 amastigotes
[12] = Trypanosoma cruzi, amastigotes in Vero cells, 72 h, mean of three ± SD
[13] = IC50 Vero cells/IC50 trypomastigotes
[14] = Trypanosoma cruzi, trypomastigotes, 24 h + 4 h resazurin, mean of three ± SD
[15] = treatment in acute phase, 16th dpi (2 days after treatment)
[16] = treatment in acute phase, necropsy day
[17] = treatment in chronic phase, 81th dpi (2 days after treatment)
[18] = treatment in chronic phase, necropsy day

Question: Which “Selectivity Index T. cruzi Arequipa Strain A” value [1, 11] does the source give for c1cc2nc(c1)CNCCN(CCNCc1ccc3ccc4ccc(CNCCN5CCNCc6cccc(n6)CNCC5)nc4c3n1)CCNC2 [Compound 15] here?
Answer: 262.0

Question: What about the IC50 [1, 12] of the same compound?
Answer: 2.5 ± 0.3 µM

Question: What about the “Selectivity Index T. cruzi Arequipa Strain T” value [2, 13] of the same compound?
Answer: 409.3

Question: What about the IC50 [2, 14] of the same compound?
Answer: 1.6 ± 0.1 µM

Question: What about the “Selectivity Index T. cruzi SN3 Strain A” value [3, 11] of the same compound?
Answer: 58.0

Question: What about the IC50 [3, 12] of the same compound?
Answer: 11.3 ± 0.9 µM

Question: What about the “Selectivity Index T. cruzi SN3 Strain T” value [4, 13] of the same compound?
Answer: 62.0

Question: And the IC50 [4, 14]?
Answer: 10.6 ± 0.9 µM

Question: And the “Selectivity Index T. cruzi Tulahuen Strain T” value [5, 13]?
Answer: 83.6

Question: And the IC50 ([5]; Trypanosoma cruzi, TULAHUEN, trypomastigotes, 24 h + 4 h resazurin, mean of three ± SD)?
Answer: 7.8 ± 0.7 µM

Question: What about the CC50 [6] of the same compound?
Answer: 655 ± 51.9 µM

Question: What about the “ALP, variation over the range” value [7, 15] of the same compound?
Answer: = (variation ≤ 10%)

Question: And the “ALT/GPT, variation over the range” value [7, 15]?
Answer: ++ (20-30% increase/decrease over the range)

Question: What about the “AST/GOT, variation over the range” value [7, 15] of the same compound?
Answer: ++ (20-30% increase/decrease over the range)

Question: And the “CK-MB, variation over the range” value [7, 15]?
Answer: -- (20-30% increase/decrease over the range)

Question: And the “LDH, variation over the range” value [7, 15]?
Answer: = (variation ≤ 10%)

Question: And the “Total bilirubin, variation over the range” value [7, 15]?
Answer: + (10-20% increase/decrease over the range)

Question: And the “Urea, variation over the range” value [7, 15]?
Answer: - (10-20% increase/decrease over the range)

Question: And the “Uric acid, variation over the range” value [7, 15]?
Answer: -- (20-30% increase/decrease over the range)

Question: And the “ALP, variation over the range” value [7, 16]?
Answer: = (variation ≤ 10%)

Question: What about the “ALT/GPT, variation over the range” value [7, 16] of the same compound?
Answer: + (10-20% increase/decrease over the range)

Question: And the “AST/GOT, variation over the range” value [7, 16]?
Answer: + (10-20% increase/decrease over the range)

Question: And the “CK-MB, variation over the range” value [7, 16]?
Answer: = (variation ≤ 10%)

Question: And the “LDH, variation over the range” value [7, 16]?
Answer: = (variation ≤ 10%)

Question: And the “Total bilirubin, variation over the range” value [7, 16]?
Answer: + (10-20% increase/decrease over the range)

Question: And the “Urea, variation over the range” value [7, 16]?
Answer: = (variation ≤ 10%)

Question: And the “Uric acid, variation over the range” value [7, 16]?
Answer: = (variation ≤ 10%)

Question: And the “ALP, variation over the range” value [7, 17]?
Answer: = (variation ≤ 10%)

Question: What about the “ALT/GPT, variation over the range” value [7, 17] of the same compound?
Answer: + (10-20% increase/decrease over the range)

Question: What about the “AST/GOT, variation over the range” value [7, 17] of the same compound?
Answer: + (10-20% increase/decrease over the range)

Question: And the “CK-MB, variation over the range” value [7, 17]?
Answer: - (10-20% increase/decrease over the range)

Question: What about the “LDH, variation over the range” value [7, 17] of the same compound?
Answer: = (variation ≤ 10%)

Question: And the “Total bilirubin, variation over the range” value [7, 17]?
Answer: ++ (20-30% increase/decrease over the range)

Question: What about the “Urea, variation over the range” value [7, 17] of the same compound?
Answer: -- (20-30% increase/decrease over the range)

Question: And the “Uric acid, variation over the range” value [7, 17]?
Answer: --- (30-40% increase/decrease over the range)

Question: What about the “ALP, variation over the range” value [7, 18] of the same compound?
Answer: = (variation ≤ 10%)

Question: What about the “ALT/GPT, variation over the range” value [7, 18] of the same compound?
Answer: = (variation ≤ 10%)

Question: And the “AST/GOT, variation over the range” value [7, 18]?
Answer: = (variation ≤ 10%)

Question: And the “CK-MB, variation over the range” value [7, 18]?
Answer: = (variation ≤ 10%)

Question: What about the “LDH, variation over the range” value [7, 18] of the same compound?
Answer: = (variation ≤ 10%)

Question: And the “Total bilirubin, variation over the range” value [7, 18]?
Answer: + (10-20% increase/decrease over the range)

Question: And the “Urea, variation over the range” value [7, 18]?
Answer: - (10-20% increase/decrease over the range)

Question: What about the “Uric acid, variation over the range” value [7, 18] of the same compound?
Answer: - (10-20% increase/decrease over the range)

Question: And the “Inhibition on mitochondrial membrane potential with respect to untreated epimastigotes” value [8]?
Answer: 43.1%

Question: And the “excretion of catabolites compared with untreated parasites” value [9]?
Answer: notably increased

Question: And the “death or body mass loss of treated mice” value [10]?
Answer: none of the mice died or lost more than 10% body mass
